# Test results: patent publication US20230021483A1, “[…] […] METHOD AND CLASSIFICATION OF PHARMACEUTICAL COMPONENTS BY USING TRANSCRIPTOMES” (National Institutes of Biomedical Innovation, Health and …, priority 2016, published 2023)
# “And” between values parts separate entries of the source, which are not always exact repeats. Equal values may be shown once.
# Tests used:
# Format in all cases: in vivo, C57BL/6 mice
# [1] = tested on: spleen (SP); experiment: Whole organ transcriptome (GeneChip microarray) of spleen 6 h after adjuvant administration: sDEGs, hierarchical clustering; conditions: for Number of gene probes with statistically significant changes (sDEGs), SP, Down: fold change <0.667, p<0.01, customized PA call=1, 6 h after adjuvant; for Number of gene probes with statistically significant changes (sDEGs), SP, Up: fold change >1.5, p<0.01, customized PA call=1, 6 h after adjuvant; for adjuvant group (cluster) in SP: key: G1 (interferon signaling); G2 (metabolism of lipids and lipoproteins); G3 (response to stress); G4 (response to wounding); G5 (phosphate-containing compound metabolic process); G6 (phagosome)
# [2] = tested on: inguinal lymph nodes (LN); experiment: Whole organ transcriptome (GeneChip microarray) of draining inguinal lymph nodes 6 h after adjuvant administration: sDEGs, gene modules, hierarchical clustering; conditions: lymph node; for adjuvant group (cluster) in LN: key: G1 (interferon signaling); G2 (metabolism of lipids and lipoproteins); G3 (response to stress); G4 (response to wounding); G5 (phosphate-containing compound metabolic process); G6 (phagosome)
# [3] = tested on: preferentially upregulated genes in LV, SP, LN; experiment: Z-score-based differential gene expression analysis (adjuvant group- or adjuvant-associated genes, 40 module mapping, TargetMine annotation); conditions: for Adar 1425405_a_at (Group G1, Modules 20) / Adar 1434268_at (Group G1, Modules 20) / Ddx58 1436562_at (Group G1, Modules 20) / Ddx58 1456890_at (Group G1, Modules 20) / Gm9706///Isg15 1431591_s_at (Group G1, Modules 20) / Ifit1 1450783_at (Group G1, Modules 20) / Ifit3 1449025_at (Group G1, Modules 20) / Irgm1 1418825_at (Group G1, Modules 20) / Mndal 1426906_at (Group G1, Modules 20) / Rsad2 1436058_at (Group G1, Modules 20) / Shisa5 1423986_a_at (Group G1, Modules 20) / Shisa5 1437503_a_at (Group G1, Modules 20) / Stat1 1450033_a_at (Group G1, Modules 20) / Stat1 1450034_at (Group G1, Modules 20) / Tor1aip2 1435526_at (Group G1, Modules 20): IP, LV
# Summary of the method: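 Gene groups for each organ were built from combined z-score cutoffs across adjuvants, ranging from z>1 to z>3. Scores came from fold changes standardized per gene over the whole organ data set, with the three replicate z-scores added per adjuvant; sums above 3 marked preferential expression.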
# [4] = tested on: LV, SP and LNs; experiment: Whole organ transcriptome across organs (adjuvant gene space): gene responses and adjuvant grouping
# [5] = liver (LV), gene group G1, module 20, individual mice x1-x3, route ID/IP/IN
compound,measurement,setting,value
"CC(O)COC[C@H]1O[C@@H]2O[C@H]3[C@H](O)[C@@H](O)[C@@H](O[C@H]4[C@H](O)[C@@H](O)[C@@H](O[C@H]5[C@H](O)[C@@H](O)[C@@H](O[C@H]6[C@H](O)[C@@H](O)[C@@H](O[C@H]7[C@H](O)[C@@H](O)[C@@H](O[C@H]8[C@H](O)[C@@H](O)[C@@H](O[C@H]1[C@H](O)[C@H]2O)O[C@@H]8COCC(C)O)O[C@@H]7COCC(C)O)O[C@@H]6COCC(C)O)O[C@@H]5COCC(C)O)O[C@@H]4COCC(C)O)O[C@@H]3COCC(C)O (stereo partly drawn) [bCD, Hydroxypropyl-beta-cyclodextrin]",adjuvant group (cluster) in SP,[1]; hierarchical clustering,G2
same,"Number of gene probes with statistically significant changes (sDEGs), SP, Down",[1]; i.d. administration,59
same,"Number of gene probes with statistically significant changes (sDEGs), SP, Up",[1]; i.d. administration,111
same,"Number of gene probes with statistically significant changes (sDEGs), SP, Down",[1]; i.p. administration,5
same,"Number of gene probes with statistically significant changes (sDEGs), SP, Up",[1]; i.p. administration,4
same,adjuvant group (cluster) in LN,[2]; hierarchical clustering,G2
same,"Number of gene probes with statistically significant changes (sDEGs), LN, Down","[2]; i.d. administration, fold change <0.667, p<0.01, customized PA call=1, 6 h after adjuvant",110
same,"Number of gene probes with statistically significant changes (sDEGs), LN, Up","[2]; i.d. administration, fold change >1.5, p<0.01, customized PA call=1, 6 h after adjuvant",89
same,"Adar 1425405_a_at (Group G1, Modules 20)",[3]; sample x1,−0.5
same,"Adar 1434268_at (Group G1, Modules 20)",[3]; sample x1,−0.3
same,"Ddx58 1436562_at (Group G1, Modules 20)",[3]; sample x1,−0.4
same,"Ddx58 1456890_at (Group G1, Modules 20)",[3]; sample x1,−0.6
same,"Gm9706///Isg15 1431591_s_at (Group G1, Modules 20)",[3]; sample x1,−0.5
same,"Ifit1 1450783_at (Group G1, Modules 20)",[3]; sample x1,−0.5
same,"Ifit3 1449025_at (Group G1, Modules 20)",[3]; sample x1,−0.5
same,"Irgm1 1418825_at (Group G1, Modules 20)",[3]; sample x1,−0.5
same,"Mndal 1426906_at (Group G1, Modules 20)",[3]; sample x1,−0.3
same,"Rsad2 1436058_at (Group G1, Modules 20)",[3]; sample x1,−0.5
same,"Shisa5 1423986_a_at (Group G1, Modules 20)",[3]; sample x1,−0.6
same,"Shisa5 1437503_a_at (Group G1, Modules 20)",[3]; sample x1,−0.4
same,"Stat1 1450033_a_at (Group G1, Modules 20)",[3]; sample x1,−0.5
same,"Stat1 1450034_at (Group G1, Modules 20)",[3]; sample x1,−0.5
same,"Tor1aip2 1435526_at (Group G1, Modules 20)",[3]; sample x1,−0.4
same,"Adar 1425405_a_at (Group G1, Modules 20)",[3]; sample x2,−0.4
same,"Adar 1434268_at (Group G1, Modules 20)",[3]; sample x2,−0.4
same,"Ddx58 1436562_at (Group G1, Modules 20)",[3]; sample x2,−0.3
same,"Ddx58 1456890_at (Group G1, Modules 20)",[3]; sample x2,−0.4
same,"Gm9706///Isg15 1431591_s_at (Group G1, Modules 20)",[3]; sample x2,−0.5
same,"Ifit1 1450783_at (Group G1, Modules 20)",[3]; sample x2,−0.5
same,"Ifit3 1449025_at (Group G1, Modules 20)",[3]; sample x2,−0.5
same,"Irgm1 1418825_at (Group G1, Modules 20)",[3]; sample x2,−0.6
same,"Mndal 1426906_at (Group G1, Modules 20)",[3]; sample x2,−0.3
same,"Rsad2 1436058_at (Group G1, Modules 20)",[3]; sample x2,−0.4
same,"Shisa5 1423986_a_at (Group G1, Modules 20)",[3]; sample x2,−0.3
same,"Shisa5 1437503_a_at (Group G1, Modules 20)",[3]; sample x2,−0.3
same,"Stat1 1450033_a_at (Group G1, Modules 20)",[3]; sample x2,−0.6
same,"Stat1 1450034_at (Group G1, Modules 20)",[3]; sample x2,−0.5
same,"Tor1aip2 1435526_at (Group G1, Modules 20)",[3]; sample x2,−0.3
same,"Adar 1425405_a_at (Group G1, Modules 20)",[3]; sample x3,−0.3
same,"Adar 1434268_at (Group G1, Modules 20)",[3]; sample x3,−0.4
same,"Ddx58 1436562_at (Group G1, Modules 20)",[3]; sample x3,−0.1
same,"Ddx58 1456890_at (Group G1, Modules 20)",[3]; sample x3,−0.3
same,"Gm9706///Isg15 1431591_s_at (Group G1, Modules 20)",[3]; sample x3,−0.5
same,"Ifit1 1450783_at (Group G1, Modules 20)",[3]; sample x3,−0.5
same,"Ifit3 1449025_at (Group G1, Modules 20)",[3]; sample x3,−0.5
same,"Irgm1 1418825_at (Group G1, Modules 20)",[3]; sample x3,−0.5
same,"Mndal 1426906_at (Group G1, Modules 20)",[3]; sample x3,−0.5
same,"Rsad2 1436058_at (Group G1, Modules 20)",[3]; sample x3,−0.4
same,"Shisa5 1423986_a_at (Group G1, Modules 20)",[3]; sample x3,−0.3
same,"Shisa5 1437503_a_at (Group G1, Modules 20)",[3]; sample x3,−0.3
same,"Stat1 1450033_a_at (Group G1, Modules 20)",[3]; sample x3,−0.5
same,"Stat1 1450034_at (Group G1, Modules 20)",[3]; sample x3,−0.5
same,"Tor1aip2 1435526_at (Group G1, Modules 20)",[3]; sample x3,−0.6
same,"Z score of gene expression, Adar (probe 1425405_a_at)",[3]; [5],−0.4 and −0.6 and −0.7
same,"Z score of gene expression, Adar (probe 1434268_at)",[3]; [5],−0.1 and −0.5 and −0.3
same,"Z score of gene expression, Ddx58 (probe 1436562_at)",[3]; [5],−0.7
same,"Z score of gene expression, Ddx58 (probe 1456890_at)",[3]; [5],−0.6 and −0.7 (2×)
same,"Z score of gene expression, Eif2ak2 (probe 1422005_at)",[3]; [5],−0.4 and −0.6 and −0.5
same,"Z score of gene expression, G3bp2 (probe 1421323_a_at)",[3]; [5],−0.3 (2×) and −0.4
same,"Z score of gene expression, Gm9706///Isg15 (probe 1431591_s_at)",[3]; [5],−0.5
same,"Z score of gene expression, H2-T10///H2-T22///H2-T9 (probe 1449875_s_at)",[3]; [5],−0.6 (2×) and −0.8
same,"Z score of gene expression, Ifih1 (probe 1426276_at)",[3]; [5],−0.5 and −0.6 (2×)
same,"Z score of gene expression, Ifit1 (probe 1449025_at)",[3]; [5],−0.5
same,"Z score of gene expression, Ifit1 (probe 1450783_at)",[3]; [5],−0.5
same,"Z score of gene expression, Irf7 (probe 1417244_a_at)",[3]; [5],−0.4 (2×) and −0.5
same,"Z score of gene expression, Irgm1 (probe 1418825_at)",[3]; [5],−0.5 and −0.7 and −0.6
same,"Z score of gene expression, Mndal (probe 1426906_at)",[3]; [5],−0.5 and −0.6 (2×)
same,"Z score of gene expression, Pml (probe 1448757_at)",[3]; [5],−0.6 and −0.7 (2×)
same,"Z score of gene expression, Pml (probe 1456103_at)",[3]; [5],−0.6 (2×) and −0.5
same,"Z score of gene expression, Rnf213 (probe 1455500_at)",[3]; [5],−0.5 and −0.6 (2×)
same,"Z score of gene expression, Rsad2 (probe 1436058_at)",[3]; [5],−0.5
same,"Z score of gene expression, Shisa5 (probe 1423986_a_at)",[3]; [5],−0.6 and −0.7 and −0.8
same,"Z score of gene expression, Shisa5 (probe 1437503_a_at)",[3]; [5],−0.4 and −0.7 and −0.5
same,"Z score of gene expression, Stat1 (probe 1450033_a_at)",[3]; [5],−0.6
same,"Z score of gene expression, Stat1 (probe 1450034_at)",[3]; [5],−0.5 and −0.6 (2×)
same,"Z score of gene expression, Tdrd7 (probe 1426716_at)",[3]; [5],−0.7 and −1 and −0.9
same,"Z score of gene expression, Tor1aip2 (probe 1418115_s_at)",[3]; [5],−0.2 and −0.7 and −0.6
same,"Z score of gene expression, Tor1aip2 (probe 1418116_at)",[3]; [5],−0.4 and −0.8 and −0.6
same,"Z score of gene expression, Tor1aip2 (probe 1435526_at)",[3]; [5],−0.4 (2×) and −0.7
same,"Z score of gene expression, Trim12a (probe 1437432_a_at)",[3]; [5],−0.5
same,"Z score of gene expression, Uba7 (probe 1426970_a_at)",[3]; [5],−0.6 (2×) and −0.7
same,gene expression changes in LV and SP,"[4]; 6 h, Table 15, route not given",relatively weaker responses
same,adjuvant group (cluster) within the adjuvant gene space,"[4]; hierarchical clustering, LV, SP and/or LNs",G2
